Assay [1] concerns the target T1, EGFR (C797S L858R) (Homo sapiens, UniProt P00533, C797S/L858R).
T1 construct: purchased signalchem
Nature of the assay: Inhibition of EGFR (C797S L858R) biochemical enzymatic activity (HTRF). The following applies: 1 mM ATP; for pIC50: EGFR (C797S L858R), 1 h at room temperature. The gist of the method: (§1)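 Compounds at varying concentrations were tested against each EGFR form using 1 mM ATP and 1 μM TK Substrate-biotin. Reactions ran 1 h at room temperature in Mg2+/Mn2+ buffer with CHAPS, DTT and 0.5% DMSO. Time-resolved fluorescence gave IC50 by four-parameter fit.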
For orientation: In TR-FRET formats the signal depends on donor and acceptor labels being close together.

Assay [2] deals with T2, EGFR[T790M/C797S/L858R] (Homo sapiens, UniProt P00533, C797S/L858R/T790M).
T2 construct: purchased Carna Bio
Briefly: Inhibition of EGFR[T790M/C797S/L858R] biochemical enzymatic activity (HTRF). The conditions noted are these: 1 mM ATP; for pIC50: EGFR[T790M/C797S/L858R], 1 h at room temperature. The gist of the method: as §1

Assay [3] addresses T3, EGFR wild type (Homo sapiens, UniProt P00533).
T3 construct: purchased Carna Bio
Nature of the assay: Inhibition of EGFR wild type biochemical enzymatic activity (HTRF). The following applies: 1 mM ATP; for pIC50: EGFR wild type, 1 h at room temperature. The gist of the method: as §1

Assay [4] deals with Ba/F3 cells expressing EGFR mutations. Briefly: Cell proliferation assay, Ba/F3 cells expressing EGFR mutations (CellTiter-Glo, 72 hours). In kind it is cell-based. The gist of the method: (§2)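 Growth over 72 h was quantified by CellTiter-Glo luminescence, normalised as (G3 − G0)/(DMSO G3 − G0), for PC-9 cells seeded at 500/well and EGFR-mutant Ba/F3 cells at 5000/well in RPMI1640. Compound concentration series added after overnight incubation; GI50 obtained from best-fit curves.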
Background: Cellular ATP, detected with luciferase, serves as a proxy for viable cell number.

Assay [5] has as its system PC-9. Nature of the assay: Cell proliferation assay, PC-9 cells (CellTiter-Glo, 72 hours). The following applies: PC9 cells, read-out: GI50 PC9. In kind it is cell-based. The gist of the method: as §2
The target in assay [6] is T4, EGFR Exon19Del/T790M (Homo sapiens, UniProt P00533, DEL746-750/T790M).
T4 construct: purchased Carna Bio
Briefly: Inhibition of EGFR Exon19Del/T790M biochemical enzymatic activity (HTRF). The following applies: 1 mM ATP; for pIC50: EGFR Exon19Del/T790M, 1 h at room temperature. The gist of the method: as §1

In assay [7] the target is T5, EGFR L858R/T790M (Homo sapiens, UniProt P00533, L858R/T790M).
T5 construct: purchased Carna Bio
Nature of the assay: Inhibition of EGFR L858R/T790M biochemical enzymatic activity (HTRF). The following applies: 1 mM ATP; for pIC50: EGFR L858R/T790M, 1 h at room temperature. The gist of the method:
as §1

The target in assay [8] is T6, EGFR Exon19Del (Homo sapiens, UniProt P00533, DEL746-750).
T6 construct: purchased Carna Bio
Nature of the assay: Inhibition of EGFR Exon19Del biochemical enzymatic activity (HTRF). The gist of the method: as §1

Assay [9] concerns the target T7, EGFR[T790M/C797S/d746-750] (Homo sapiens, UniProt P00533, C797S/DEL746-750/T790M).
T7 construct: purchased Carna Bio
Briefly: Inhibition of EGFR[T790M/C797S/d746-750] biochemical enzymatic activity (HTRF). The conditions noted are these: for pIC50: 1 mM ATP, 1 h at room temperature. The gist of the method: as §1

The test system of assay [10] is A-431. Briefly: Cell proliferation assay, A-431 cells (GI50, Table 6). It is filed as cell-based. The conditions noted are these: Homo sapiens, A-431, A-431 cells.
In assay [11] the target is T8, EGFR (d746-750 C797S) (Homo sapiens, UniProt P00533, C797S/DEL746-750).
T8 construct: purchased signalchem
Nature of the assay: Inhibition of EGFR (d746-750 C797S) biochemical enzymatic activity (HTRF). The following applies: 1 mM ATP; for pIC50: EGFR (d746-750 C797S), 1 h at room temperature. The gist of the method: as §1

Assay [12] deals with T9, EGFR L858R (Homo sapiens, UniProt P00533, L858R).
T9 construct: purchased Carna Bio
Briefly: Inhibition of EGFR L858R biochemical enzymatic activity (HTRF). The conditions noted are these: 1 mM ATP; for pIC50: 1 h at room temperature. The gist of the method:
as §1

The mark [13] stands for this setting: BaF3 cells, EGFR DEL19 - C797S, read-out: GI50 DEL19 - C797S/BaF3.
[14] abbreviates: BaF3 cells, EGFR DEL19 - T790-C797S, read-out: GI50 DEL19 - T790-C797S/BaF3.
Where [15] appears, read: BaF3 cells, EGFR L858R - C797S, read-out: GI50 L858R - C797S/BaF3.
[16] abbreviates: BaF3 cells, EGFR L858R - T790-C797S, read-out: GI50 L858R - T790-C797S/BaF3.
Where [17] appears, read: BaF3 cells, EGFR L858R - T790M, read-out: GI50 L858R - T790M/BaF3.
[18] abbreviates: BaF3 cells, EGFR L858R, read-out: GI50 L858R/BaF3.
[19] abbreviates: EGFR DEL19 - T790M, read-out: GI50 DEL19 - T790M.
Setting [20] is: read-out: IC50 @T790M- C797S - L858R.
Setting [21] is: EGFR Exon19Del, 1 mM ATP, 1 h at room temperature, read-out: IC50 @Del19.
Setting [22] is: EGFR[T790M/C797S/d746-750], read-out: IC50 @T790M - C797S - Del19.

pIC50: −log10 of the molar value. Where two headings read alike, the source gives them in different places.

The text below walks through data of patent publication US20260365670A1, “EGFR INHIBITORS AND USES THEREOF” (DIZAL (JIANGSU) PHARMACEUTICAL CO., LTD., priority 2022, published 2026).

For orientation: pIC50 means −log10 of the IC50, conventionally taken in molar units. As usually defined, the IC50 is the point on the concentration scale where inhibition reaches its midpoint.

T1 sequence (P00533 25-1210 C797S/L858R): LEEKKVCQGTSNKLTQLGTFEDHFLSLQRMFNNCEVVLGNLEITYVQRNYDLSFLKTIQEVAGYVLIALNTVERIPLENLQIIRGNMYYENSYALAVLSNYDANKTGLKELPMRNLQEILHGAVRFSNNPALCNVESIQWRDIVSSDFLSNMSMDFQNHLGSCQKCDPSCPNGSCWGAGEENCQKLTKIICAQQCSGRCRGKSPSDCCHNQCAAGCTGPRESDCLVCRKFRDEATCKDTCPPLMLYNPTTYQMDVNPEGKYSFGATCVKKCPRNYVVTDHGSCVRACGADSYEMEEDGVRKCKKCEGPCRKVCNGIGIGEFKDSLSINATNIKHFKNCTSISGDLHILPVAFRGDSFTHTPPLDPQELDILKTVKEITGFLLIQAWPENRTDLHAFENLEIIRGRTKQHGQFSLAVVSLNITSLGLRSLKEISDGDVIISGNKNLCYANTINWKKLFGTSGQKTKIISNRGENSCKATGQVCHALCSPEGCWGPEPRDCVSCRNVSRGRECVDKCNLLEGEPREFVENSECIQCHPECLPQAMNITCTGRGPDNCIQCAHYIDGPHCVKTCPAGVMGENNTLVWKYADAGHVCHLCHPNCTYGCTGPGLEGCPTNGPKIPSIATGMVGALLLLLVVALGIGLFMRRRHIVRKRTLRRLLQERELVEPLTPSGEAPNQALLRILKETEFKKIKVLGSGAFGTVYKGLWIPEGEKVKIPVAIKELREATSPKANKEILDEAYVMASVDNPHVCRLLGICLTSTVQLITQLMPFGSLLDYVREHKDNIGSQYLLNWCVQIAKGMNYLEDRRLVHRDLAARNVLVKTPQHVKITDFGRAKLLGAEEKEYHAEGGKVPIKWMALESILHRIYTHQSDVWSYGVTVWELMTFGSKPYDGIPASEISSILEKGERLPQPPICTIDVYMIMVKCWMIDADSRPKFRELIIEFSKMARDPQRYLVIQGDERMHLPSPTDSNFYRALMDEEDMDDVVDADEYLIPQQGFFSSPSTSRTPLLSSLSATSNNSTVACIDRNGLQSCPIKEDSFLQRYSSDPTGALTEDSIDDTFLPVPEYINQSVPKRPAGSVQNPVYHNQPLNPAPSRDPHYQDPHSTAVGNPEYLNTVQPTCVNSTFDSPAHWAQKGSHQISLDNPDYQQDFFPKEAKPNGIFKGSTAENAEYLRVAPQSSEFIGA
T5 sequence (P00533 25-1210 T790M/L858R): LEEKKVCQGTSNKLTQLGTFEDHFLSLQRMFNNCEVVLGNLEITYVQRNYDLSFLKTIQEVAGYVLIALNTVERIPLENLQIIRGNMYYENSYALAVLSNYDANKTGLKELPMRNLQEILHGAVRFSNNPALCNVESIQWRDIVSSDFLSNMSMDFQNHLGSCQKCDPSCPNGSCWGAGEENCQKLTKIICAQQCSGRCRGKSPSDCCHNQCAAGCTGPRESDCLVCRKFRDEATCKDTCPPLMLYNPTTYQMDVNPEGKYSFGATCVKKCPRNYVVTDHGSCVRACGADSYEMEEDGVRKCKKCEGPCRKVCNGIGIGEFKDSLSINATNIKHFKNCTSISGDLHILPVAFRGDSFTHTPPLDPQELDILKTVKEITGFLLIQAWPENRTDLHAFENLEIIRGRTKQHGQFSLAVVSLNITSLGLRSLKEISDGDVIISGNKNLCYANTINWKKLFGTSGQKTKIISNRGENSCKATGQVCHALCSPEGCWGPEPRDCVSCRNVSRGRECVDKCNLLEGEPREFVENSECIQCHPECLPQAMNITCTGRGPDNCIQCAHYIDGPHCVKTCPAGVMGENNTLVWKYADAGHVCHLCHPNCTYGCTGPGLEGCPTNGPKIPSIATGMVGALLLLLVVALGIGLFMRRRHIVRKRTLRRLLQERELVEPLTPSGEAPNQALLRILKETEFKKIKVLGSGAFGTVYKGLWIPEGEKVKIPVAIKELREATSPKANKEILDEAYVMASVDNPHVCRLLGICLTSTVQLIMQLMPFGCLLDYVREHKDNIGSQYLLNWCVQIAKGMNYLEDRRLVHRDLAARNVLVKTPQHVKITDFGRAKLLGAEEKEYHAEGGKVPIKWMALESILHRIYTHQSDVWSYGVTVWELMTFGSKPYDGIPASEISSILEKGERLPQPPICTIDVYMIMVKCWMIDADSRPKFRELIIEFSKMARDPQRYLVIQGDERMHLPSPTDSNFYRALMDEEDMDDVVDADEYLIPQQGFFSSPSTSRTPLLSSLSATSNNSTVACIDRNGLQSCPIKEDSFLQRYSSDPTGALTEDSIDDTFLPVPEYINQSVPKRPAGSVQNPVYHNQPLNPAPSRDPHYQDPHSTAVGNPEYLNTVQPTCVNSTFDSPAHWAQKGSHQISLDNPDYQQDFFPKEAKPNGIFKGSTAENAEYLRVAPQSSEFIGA
T2 sequence (P00533 25-1210 T790M/C797S/L858R): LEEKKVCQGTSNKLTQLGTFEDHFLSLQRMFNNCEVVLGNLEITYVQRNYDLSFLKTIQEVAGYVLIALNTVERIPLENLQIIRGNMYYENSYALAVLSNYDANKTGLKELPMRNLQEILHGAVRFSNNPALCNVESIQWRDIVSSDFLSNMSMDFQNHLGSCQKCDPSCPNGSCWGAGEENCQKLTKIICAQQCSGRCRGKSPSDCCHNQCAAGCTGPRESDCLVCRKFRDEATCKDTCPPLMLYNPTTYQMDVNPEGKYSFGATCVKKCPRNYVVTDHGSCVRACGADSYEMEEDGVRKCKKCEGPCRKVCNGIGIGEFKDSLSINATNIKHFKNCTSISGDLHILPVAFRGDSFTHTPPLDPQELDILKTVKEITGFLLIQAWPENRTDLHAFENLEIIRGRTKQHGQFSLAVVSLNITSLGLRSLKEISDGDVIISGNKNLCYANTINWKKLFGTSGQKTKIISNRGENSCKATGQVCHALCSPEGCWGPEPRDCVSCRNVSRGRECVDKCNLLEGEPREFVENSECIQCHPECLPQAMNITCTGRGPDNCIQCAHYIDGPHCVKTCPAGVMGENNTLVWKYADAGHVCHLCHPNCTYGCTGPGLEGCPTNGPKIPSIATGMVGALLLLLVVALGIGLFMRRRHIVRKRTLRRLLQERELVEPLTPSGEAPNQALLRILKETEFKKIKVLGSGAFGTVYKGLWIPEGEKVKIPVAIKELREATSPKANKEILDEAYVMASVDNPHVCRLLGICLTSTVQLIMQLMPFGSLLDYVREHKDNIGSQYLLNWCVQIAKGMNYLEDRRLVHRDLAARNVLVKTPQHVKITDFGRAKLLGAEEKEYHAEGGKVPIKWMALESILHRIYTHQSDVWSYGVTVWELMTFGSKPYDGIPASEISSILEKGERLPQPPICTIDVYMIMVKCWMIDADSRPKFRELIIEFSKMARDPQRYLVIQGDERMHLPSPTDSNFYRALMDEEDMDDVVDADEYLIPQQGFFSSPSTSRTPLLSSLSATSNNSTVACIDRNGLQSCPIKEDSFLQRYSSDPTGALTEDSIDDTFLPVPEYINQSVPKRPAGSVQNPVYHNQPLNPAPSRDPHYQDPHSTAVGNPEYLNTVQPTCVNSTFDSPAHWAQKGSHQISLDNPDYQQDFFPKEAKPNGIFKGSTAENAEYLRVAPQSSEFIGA
T3 sequence (P00533 25-1210): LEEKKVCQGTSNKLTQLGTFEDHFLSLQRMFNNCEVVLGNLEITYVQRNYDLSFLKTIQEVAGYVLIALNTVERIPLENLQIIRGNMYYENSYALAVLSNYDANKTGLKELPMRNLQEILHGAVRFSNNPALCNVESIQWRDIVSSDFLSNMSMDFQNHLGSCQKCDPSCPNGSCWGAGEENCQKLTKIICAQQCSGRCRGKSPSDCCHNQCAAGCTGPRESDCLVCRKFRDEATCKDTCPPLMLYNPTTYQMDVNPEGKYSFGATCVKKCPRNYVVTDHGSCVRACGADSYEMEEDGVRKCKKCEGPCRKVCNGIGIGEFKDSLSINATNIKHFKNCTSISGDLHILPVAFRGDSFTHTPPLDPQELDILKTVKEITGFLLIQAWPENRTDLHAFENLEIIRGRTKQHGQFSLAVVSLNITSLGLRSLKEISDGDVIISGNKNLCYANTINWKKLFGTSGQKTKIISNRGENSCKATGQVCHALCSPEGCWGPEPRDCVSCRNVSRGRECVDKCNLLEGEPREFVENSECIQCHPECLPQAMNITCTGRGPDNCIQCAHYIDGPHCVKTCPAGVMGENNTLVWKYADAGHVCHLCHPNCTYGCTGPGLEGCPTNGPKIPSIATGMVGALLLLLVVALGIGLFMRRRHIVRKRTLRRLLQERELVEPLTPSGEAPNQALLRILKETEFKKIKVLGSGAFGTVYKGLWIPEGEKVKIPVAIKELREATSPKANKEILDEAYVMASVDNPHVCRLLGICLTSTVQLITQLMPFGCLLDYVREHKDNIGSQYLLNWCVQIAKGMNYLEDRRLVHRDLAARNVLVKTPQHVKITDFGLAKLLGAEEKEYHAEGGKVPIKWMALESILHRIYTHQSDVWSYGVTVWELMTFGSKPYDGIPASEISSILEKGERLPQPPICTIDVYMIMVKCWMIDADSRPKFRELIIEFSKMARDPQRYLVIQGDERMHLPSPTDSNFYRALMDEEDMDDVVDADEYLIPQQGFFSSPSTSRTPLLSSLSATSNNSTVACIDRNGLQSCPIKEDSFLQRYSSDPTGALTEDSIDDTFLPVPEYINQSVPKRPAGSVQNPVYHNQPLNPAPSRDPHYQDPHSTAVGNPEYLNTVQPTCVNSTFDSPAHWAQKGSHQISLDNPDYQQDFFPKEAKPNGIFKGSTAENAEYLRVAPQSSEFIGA

With `Cc1cc2cc(n1)-c1cnn(C)c1OCCN1CC3CCC(C3)(C1)n1c(nc3ccc(N4CCC(N(C)C)CC4)cc31)NC2=O` (single isomer, unassigned) [Example B40B, 5-[4-(dimethylamino)piperidin-1-yl]-15,21-dimethyl-23-oxa-2,9,11,16,20,21,26-heptaazaheptacyclo[24.4.1.1^{1,28}.1^{13,17}.0^{2,10}.0^{3,8}.0^{18,22}]tritriaconta-3,5,7,9,13,15,17(33),18(22),19-nonaen-12-one], the pIC50 was 8.36 in assay [1] (IC50 @L858-C797S); 8.62 in assay [2] (IC50 @T790M- C797S - L858R); 7.00 in assay [3] (IC50 @WT); 8.33 in assay [6] (IC50 @Del19-T790M); 8.48 in [7] (IC50 @L858R-T790M); 8.35 in assay [8] (IC50 @Del19, EGFR Exon19Del, 1 mM ATP, 1 h at room temperature). Besides, the pIC50 in [9] (IC50 @T790M - C797S - Del19, EGFR[T790M/C797S/d746-750]) is 8.64; in assay [11] (IC50 @Del19-C797S) it was 8.66; in [12] (IC50 @L858R), 7.82. Moreover, the GI50 worked out at 2 nM in assay [4] (setting [13]); 2 nM in [4] (setting [14]); 6 nM in assay [4] (setting [15]); 2 nM in assay [4] (setting [16]); 2 nM in [4] (setting [17]); 8 nM in [4] (setting [18]). Moreover, the GI50 in assay [4] (setting [19]) is 2 nM; in [5], 9 nM; in assay [10] it was 333 nM.
As for `CN1CCC2(CC1)CCN(c1ccc3nc4n(c3c1)C13CCC(CC1)CN(CCOc1c(cnn1C)-c1cc(cn(C)c1=O)C(=O)N4)C3)C2` [Example A123], the IC50 in [1] (EGFR L858-C797S, 1 h, room temperature, read-out: IC50 (nM) @L858-C797S) is 57 nM; in [2] (EGFR T790M-C797S-L858R, 1 h, room temperature, read-out: IC50 (nM) @T790M- C797S - L858R), 23 nM; in [3] (EGFR WT, 1 h, room temperature, read-out: IC50 (nM) @WT) it was over 5000 nM; in assay [6] (EGFR Del19-T790M, 1 h, room temperature, read-out: IC50 (nM) @Del19-T790M) it was 13 nM; in assay [7] (EGFR L858R-T790M, 1 h, room temperature, read-out: IC50 (nM) @L858R-T790M), 223 nM; in assay [9] (EGFR T790M-C797S-Del19, 1 mM ATP, 1 h, room temperature, read-out: IC50 (nM) @T790M - C797S - Del19), 11 nM. Besides, the IC50 in assay [11] (EGFR Del19-C797S, 1 h, room temperature, read-out: IC50 (nM) @Del19-C797S) amounted to 9.4 nM; in assay [12] (1 h, room temperature, read-out: IC50 (nM) @L858R), 65 nM. Moreover, the GI50 came to 12 nM in [4] (Mus musculus, BaF3, 72 h, BaF3 cells, EGFR DEL19 - C797S, read-out: GI50 DEL19 - C797S/BaF3); 45 nM in assay [4] (Mus musculus, BaF3, 72 h, BaF3 cells, EGFR DEL19 - T790-C797S, read-out: GI50 DEL19 - T790-C797S/BaF3); 32 nM in assay [4] (Mus musculus, BaF3, 72 h, BaF3 cells, EGFR L858R - C797S, read-out: GI50 L858R - C797S/BaF3); 20 nM in assay [4] (Mus musculus, BaF3, 72 h, BaF3 cells, EGFR L858R - T790-C797S, read-out: GI50 L858R - T790-C797S/BaF3); 59 nM in assay [4] (Mus musculus, BaF3, 72 h, BaF3 cells, EGFR L858R - T790M, read-out: GI50 L858R - T790M/BaF3); 5.8 nM in assay [4] (Mus musculus, BaF3, 72 h, BaF3 cells, EGFR L858R, read-out: GI50 L858R/BaF3). For the same compound, the GI50 in assay [4] (Mus musculus, BaF3, 72 h, EGFR DEL19 - T790M, read-out: GI50 DEL19 - T790M) is 27 nM; in [5] (Homo sapiens, PC-9, 72 h), 25 nM; in assay [10] it was 6110 nM. Besides, in [8] (EGFR Del19, 1 mM ATP, 1 h, room temperature, read-out: IC50 @Del19), the pIC50 is 7.89.
As to `Cc1cc2cc(n1)-c1cnn(C)c1OCCN1CC3CCC(C3)(C1)n1c(nc3ccc(N4CCC5(CN(C)C5)C4)cc31)NC2=O` (single isomer, unassigned) [Example B50B], the pIC50 in assay [1] (read-out: IC50 @L858-C797S) was 8.15; in [2] (setting [20]) it was 8.82; in [3] (read-out: IC50 @WT) it was 6.38; in assay [6] (read-out: IC50 @Del19-T790M), 8.44; in assay [7] (read-out: IC50 @L858R-T790M) it was 8.52; in assay [8] (setting [21]), 8.29. In addition, the pIC50 was 8.62 in assay [9] (setting [22]), 8.68 in assay [11] (read-out: IC50 @Del19-C797S) and 7.59 in [12] (read-out: IC50 @L858R). Besides, the GI50 in assay [4] (setting [13]) is 2 nM; in assay [4] (setting [14]) it was 2 nM; in assay [4] (setting [15]), 4 nM; in [4] (setting [16]), 2 nM; in assay [4] (setting [17]) it was 2 nM; in assay [4] (setting [18]), 7 nM. The GI50 in [4] (setting [19]) was 2 nM; in assay [5] it was 8 nM; in assay [10] it was 1570 nM.
With `Cc1cc2cc(n1)-c1cnn(C)c1OCCN1CC3CCC(C3)(C1)n1c(nc3ccc(N4CCN(C(C)C)CC4)cc31)NC2=O` (single isomer, unassigned) [Example B57B], the pIC50 is 8.22 in [1] (read-out: IC50 @L858-C797S); 8.74 in [2] (setting [20]); 6.27 in assay [3] (read-out: IC50 @WT); 8.37 in assay [6] (read-out: IC50 @Del19-T790M); 8.43 in assay [7] (read-out: IC50 @L858R-T790M); 8.21 in assay [8] (setting [21]). In addition, the pIC50 is 8.59 in assay [9] (setting [22]), 8.68 in [11] (read-out: IC50 @Del19-C797S) and 7.51 in [12] (read-out: IC50 @L858R). Further, the GI50 in [4] (setting [13]) amounted to 2 nM; in assay [4] (setting [14]), 2 nM; in [4] (setting [15]), 8 nM; in assay [4] (setting [16]) it was 2 nM; in assay [4] (setting [17]) it was 2 nM; in [4] (setting [18]) it was 9 nM. Further, the GI50 in assay [4] (setting [19]) was 2 nM; in [5], 8 nM; in assay [10] it was 257 nM.
